The results in this text go back to patent publication US6503935B1, “Imidazoles and related compounds as α1A agonists” (Abbott Laboratories, priority 1998, dated 2003).

Structures can show the parent of a compound that is named as a salt. Where only a bound is given, the exact number is not on record here.

Series [1] deals with T1, α1A (rat submaxillary gland) (Rattus norvegicus, UniProt P43140).
T1 construct: α1A (rat submaxillary gland); from tissue; host or cells: rat submaxillary gland
T1 sequence (P43140 1-466): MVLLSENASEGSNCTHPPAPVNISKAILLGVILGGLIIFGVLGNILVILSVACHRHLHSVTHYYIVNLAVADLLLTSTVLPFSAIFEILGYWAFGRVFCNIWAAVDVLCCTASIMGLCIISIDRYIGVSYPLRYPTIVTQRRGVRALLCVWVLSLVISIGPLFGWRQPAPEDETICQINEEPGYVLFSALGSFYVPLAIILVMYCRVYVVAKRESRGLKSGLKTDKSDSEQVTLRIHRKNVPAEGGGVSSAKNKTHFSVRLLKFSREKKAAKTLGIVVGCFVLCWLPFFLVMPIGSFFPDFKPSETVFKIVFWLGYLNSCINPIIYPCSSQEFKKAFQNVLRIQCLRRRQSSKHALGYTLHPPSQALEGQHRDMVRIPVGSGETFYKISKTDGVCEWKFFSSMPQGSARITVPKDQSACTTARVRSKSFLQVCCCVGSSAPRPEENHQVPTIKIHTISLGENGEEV
The experiment in a line: Radioligand binding with [3H]-prazosin, α1A. Particulars: rat submaxillary gland, [3H]-prazosin. An outline of the steps: (§1)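 Radioligand binding with [3H]-prazosin: α1A from rat submaxillary gland; α1b hamster receptor and α1d rat receptor, each expressed in mouse fibroblasts.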

In series [2] the test system is Anesthetized Dogs. Put plainly: Intraurethral pressure (IUP) in anesthetized dogs. It counts as in vivo, dog. Particulars: anesthetized female dogs, iv. From the text: (§2) In vivo Functional Assays-Assessment of Intrurethral Pressure (IUP) and Mean Arterial Pressure (MAP) in Anesthetized Dogs
(§3) Female dogs (Marshall Farms, North Rose, N.Y.) greater that 2 years of age and weighing between 12 and 15 kg were used in these studies. At least 2 weeks prior to any agonist dosing, dogs were instrumented for the chronic measurement of arterial blood pressure by implanting a telemetry transducer/transmitter (TA11PA-C40, Data Sciences International, St. Paul, Minn.) into a carotid artery.
(§4) On the test day, dogs fasted since the previous afternoon were pre-anesthetized with thiopental sodium 15 mg/kg i.v. (Pentothal™, Abbott) and intubated. Anesthesia was maintained by allowing the dog to spontaneously breathe a mixture of isoflurane (2.5 to 3 volume %) and oxygen delivered by a Narkomed Standard anesthesia system (North American Drager, Telford, Pa.). An Abbocath-T™ i.v. catheter (18-G, Abbott) was inserted into the cephalic vein for the administration of agonists. A telemetry receiver (RA1310, DataSciences) was placed under the head of each dog and was interfaced to a computerized data acquisition system (Modular Instruments Inc.(MI2), Malvern, Pa.) which allowed for the continuous calibrated recording of arterial blood pressure which was electronically filtered to determine its mean value (MAP).
(§5) Dogs with chronic telemetry implants anesthetized as described above were placed in dorsal recumbency and a balloon catheter was inserted into the urethral orifice and advanced approximately 15 cm until the tip was well inside the bladder. The balloon was then inflated with 1 ml of room air and the catheter slowly withdrawn until resistance (corresponding to the bladder neck) was evident. The balloon was then deflated and the catheter withdrawn an additional 2 cm. The balloon was then reinflated and its catheter port connected to a Gould Statham P23Dd pressure transducer interfaced to a computerized data acquisition system (Modular Instruments, Inc., Malvern, Pa.) for the measurement of intraurethral pressure. Increasing iv doses of test agonists were administered and the maximum effect of each dose on IUP was recorded. The effect of each dose was allowed to return to baseline before the next dose was given.
(§6) From the resulting dose response curve, an ED5 value, for the dose causing a maximum increase in IUP of 5 mm Hg, could be estimated. An ED20 value for the dose causing a maximum increase in MAP of 20 mm Hg could also be estimated. A selectivity ratio of MAP ED20 vs. IUP ED5 was calculated.

The test system of series [3] is Anesthetized Dogs. Put plainly: Mean arterial pressure (MAP) in anesthetized dogs. The series is classed as in vivo, dog. Particulars: iv dose causing a maximum increase in MAP of 20 mm Hg, anesthetized female dogs.
Excerpt: as §2, §3, §4, §5, §6

Series [4] has as its system Anesthetized Dogs. Put plainly: Intraurethral pressure (IUP) in anesthetized dogs. The series is classed as in vivo, dog. As to conditions: Canis lupus familiaris; iv dose causing a maximum increase in IUP of 5 mm Hg, anesthetized female dogs; read-out: Mean IUP ED5.
The target in a further series is T2, α1A (rabbit urethra) (Oryctolagus cuniculus, UniProt O02824).
T2 construct: tested for α1A functional activity using rabbit urethra; from tissue; host or cells: rabbit urethra
T2 sequence (O02824 1-466): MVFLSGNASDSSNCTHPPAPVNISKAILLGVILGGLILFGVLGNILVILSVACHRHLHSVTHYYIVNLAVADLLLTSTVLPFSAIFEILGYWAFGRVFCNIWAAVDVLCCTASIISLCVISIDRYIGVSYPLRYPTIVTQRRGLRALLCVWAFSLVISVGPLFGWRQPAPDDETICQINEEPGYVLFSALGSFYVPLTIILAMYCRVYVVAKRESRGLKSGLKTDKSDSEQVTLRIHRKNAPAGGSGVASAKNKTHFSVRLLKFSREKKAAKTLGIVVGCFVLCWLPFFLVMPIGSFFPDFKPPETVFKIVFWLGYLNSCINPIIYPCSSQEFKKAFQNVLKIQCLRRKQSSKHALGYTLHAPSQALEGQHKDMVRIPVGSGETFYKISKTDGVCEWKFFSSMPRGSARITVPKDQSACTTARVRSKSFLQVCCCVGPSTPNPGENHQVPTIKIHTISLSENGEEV
The experiment in a line: Agonist contraction of smooth muscle tissue, rabbit urethra. It counts as cell-based. Particulars: rabbit urethra; read-out: Agonist Tissue Response (pD2) α1A (rab ureth) (converted). The method, then:
Most of the compounds were tested for α1A functional activity using rabbit urethra as follows. Female New Zealand white rabbits (2.0-3.5 Kg) were sedated with CO2 and decapitated. […] Subsequent experimental conditions were as described above for the other tissues. Agonist concentration response curves were cumulative except for the vas deferens assay in which the transient response made such measurements impractical.

Another series has as its target T3, α1D (rat aorta) (Rattus norvegicus, UniProt P23944).
T3 construct: α1B (rat spleen) and α1D (rat aorta) receptors; from tissue; host or cells: rat aorta strips, endothelium removed
T3 sequence (P23944 1-561): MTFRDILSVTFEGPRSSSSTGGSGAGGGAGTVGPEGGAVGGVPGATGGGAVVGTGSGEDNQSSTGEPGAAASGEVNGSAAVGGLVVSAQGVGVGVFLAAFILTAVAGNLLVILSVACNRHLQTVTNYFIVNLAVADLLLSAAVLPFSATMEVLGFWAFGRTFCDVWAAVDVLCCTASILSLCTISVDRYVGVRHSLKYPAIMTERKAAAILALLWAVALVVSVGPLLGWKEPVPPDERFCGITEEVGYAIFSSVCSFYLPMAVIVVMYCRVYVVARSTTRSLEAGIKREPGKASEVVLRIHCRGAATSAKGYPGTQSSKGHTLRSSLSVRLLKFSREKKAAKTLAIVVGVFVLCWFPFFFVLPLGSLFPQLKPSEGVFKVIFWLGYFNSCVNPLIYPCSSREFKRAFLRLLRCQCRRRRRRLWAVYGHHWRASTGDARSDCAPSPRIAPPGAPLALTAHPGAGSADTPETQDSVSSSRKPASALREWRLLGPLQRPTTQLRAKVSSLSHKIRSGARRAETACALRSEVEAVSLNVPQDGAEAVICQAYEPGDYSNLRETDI
The experiment in a line: Agonist contraction of smooth muscle tissue, rat aorta. It counts as cell-based. As to conditions: rat aorta, endothelium removed; read-out: Agonist Tissue Response (pD2) α1D (rat aorta) (converted).

A further series deals with T4, α1B (rat spleen) (Rattus norvegicus, UniProt P15823).
T4 construct: α1B (rat spleen) and α1D (rat aorta) receptors; from tissue; host or cells: rat spleen
T4 sequence (P15823 1-515): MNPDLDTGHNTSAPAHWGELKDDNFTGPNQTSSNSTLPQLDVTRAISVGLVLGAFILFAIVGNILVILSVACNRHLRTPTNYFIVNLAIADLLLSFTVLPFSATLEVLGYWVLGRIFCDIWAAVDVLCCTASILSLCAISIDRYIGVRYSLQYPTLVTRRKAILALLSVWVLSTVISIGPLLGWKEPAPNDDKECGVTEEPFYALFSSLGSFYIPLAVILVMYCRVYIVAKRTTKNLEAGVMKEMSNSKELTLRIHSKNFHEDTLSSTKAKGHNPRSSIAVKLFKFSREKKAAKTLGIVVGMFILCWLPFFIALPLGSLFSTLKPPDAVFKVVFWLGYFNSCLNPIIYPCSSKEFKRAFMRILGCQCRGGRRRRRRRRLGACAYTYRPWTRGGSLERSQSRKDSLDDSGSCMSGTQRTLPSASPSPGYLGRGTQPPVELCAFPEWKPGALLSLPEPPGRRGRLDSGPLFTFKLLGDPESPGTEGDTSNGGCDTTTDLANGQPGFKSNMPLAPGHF
Put plainly: Agonist contraction of smooth muscle tissue, rat spleen. As to conditions: rat spleen; read-out: Agonist Tissue Response (pD2) α1B (rat spleen) (converted). The series is classed as cell-based.

Series [5] deals with T5, α1d (rat receptor expressed in mouse fibroblasts) (Rattus norvegicus, UniProt P23944).
T5 construct: expressed in transfected cells; host or cells: mouse fibroblasts
T5 sequence (P23944 1-561): T3 sequence (P23944 1-561)
The experiment in a line: Radioligand binding with [3H]-prazosin, α1d. As to conditions: rat receptor expressed in mouse fibroblasts, [3H]-prazosin; read-out: Radioligand Binding Ki α1d (Rat). In short, it runs like this:
as §1

In series [6] the target is T6, α1b (hamster receptor expressed in mouse fibroblasts) (Mesocricetus auratus, UniProt P18841).
T6 construct: expressed in transfected cells; host or cells: mouse fibroblasts
T6 sequence (P18841 1-515): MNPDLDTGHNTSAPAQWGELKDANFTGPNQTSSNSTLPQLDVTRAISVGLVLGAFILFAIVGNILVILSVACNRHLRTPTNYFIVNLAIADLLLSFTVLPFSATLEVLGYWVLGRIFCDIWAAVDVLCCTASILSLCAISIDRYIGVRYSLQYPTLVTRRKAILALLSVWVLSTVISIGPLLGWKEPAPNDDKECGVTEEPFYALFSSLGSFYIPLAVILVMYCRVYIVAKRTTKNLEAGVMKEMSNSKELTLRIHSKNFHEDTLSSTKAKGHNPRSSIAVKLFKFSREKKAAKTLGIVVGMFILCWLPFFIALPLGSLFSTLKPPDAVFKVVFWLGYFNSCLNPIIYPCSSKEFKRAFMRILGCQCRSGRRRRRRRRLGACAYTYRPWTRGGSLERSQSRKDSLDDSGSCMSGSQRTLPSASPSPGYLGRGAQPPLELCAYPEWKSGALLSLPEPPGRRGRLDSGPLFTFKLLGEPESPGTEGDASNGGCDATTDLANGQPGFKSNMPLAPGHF
The experiment in a line: Radioligand binding with [3H]-prazosin, α1b. Particulars: hamster receptor expressed in mouse fibroblasts, [3H]-prazosin; read-out: Radioligand Binding Ki α1b (Hamster). The method, then:
For purposes of discussing α1 adrenoceptor subtypes, the IUPHAR convention of using lower case letters to define molecular clones and upper case letters to indicate pharmacologically defined adrenoceptors has been followed. Compounds of formula I were evaluated in radioligand binding assays specific for α1A (rat submaxillary gland), α1b (hamster receptor expressed in mouse fibroblasts) and α1d (rat receptor expressed in mouse fibroblasts) using [^3H]-prazosin as the radioligand as described in Knepper, et al. J. Pharm.

A word on the melting point: it is the temperature, or range, at which the solid turns liquid. The compound `CN(c1cccc2c1CCCC2c1c[nH]cn1)S(C)(=O)=O` (centres unmarked) (as salt: maleate) [Example 15, N-[5,6,7,8-tetrahydro-5-(1H-imidazol-4-yl)-1-naphthalenyl]-N-methylmethanesulfonmamide, maleate] yielded a melting point of 146 to 147 °C.
Take `O=C(Nc1cccc2c1CCCC2c1c[nH]cn1)C(F)(F)F` (centres unmarked) (as salt: maleate) [Example 17, 2,2,2-trifluoro-N-[5-(1H-imidazol-4-yl)-5,6,7,8-tetahydro-1-naphthalenyl]acetamide, maleate]: the melting point lay in the range of 181 to 182 °C.
On to `COc1ccc(NS(C)(=O)=O)c2c1C(c1c[nH]cn1)CCC2` (centres unmarked) (as salt: maleate) [Example 26, N-[5,6,7,8-tetrahydro-(1H-imidazol-4-yl)-4-methoxyy-1-naphthalenyl]methanesulfonamide, maleate], for which the melting point was 181 to 184 °C.
`C=C(c1cccc(NS(=O)(=O)CC)c1)c1c[nH]cn1` (as salt: maleate) [Example 45, N-{3-[1-(1H-imidazol-4-yl)vinyl]phenyly}ethanesulfonamide, maleate]: the melting point fell in the range of 151 to 155 °C.
By Ki is commonly meant a measure of affinity in units of concentration, obtained from inhibition or displacement. Consider `O=S(=O)(CC(F)(F)F)Nc1cccc2c1CCCC2c1c[nH]cn1` (single isomer, unassigned; (+)) [Example 36, (+)-N-[5,6,7,8-tetrahydro-5-(1H-imidazol-4-yl)-1-naphthalenyl]-2,2,2-trifluoroethanesulfonamide], for which the Ki in [1] is 0.124 µM. For the same compound, the “Mean Selectivity Ratio MAP ED20/IUP ED5” value in the series with Anesthetized Dogs [2] came out at 3.6. In the series on Anesthetized Dogs [3], the “Mean MAP ED20” value came out at 508 nmol/kg. In the series with Anesthetized Dogs [4], the ED (5 mmHg IUP increase) was 0.156 µmol/kg. The EC50 on α1A (rabbit urethra) was 1.86 µM.
Turning to `Cl.Cn1cnc(C2CCCc3c(NS(C)(=O)=O)cccc32)c1` (centres unmarked) [Example 14, N-[5,6,7,8-tetrahydro-5-(1-methyl-1H-imidazol-4-yl)-1-naphthalenyl]methanesulfonamide, hydrochloride], the results for the inhibition constant Ki in [1], in [5] and in [6] were 0.277 µM, 1.04 µM and 2.02 µM, respectively. In the series with Anesthetized Dogs [3], the “Mean MAP ED20” value was above 1000 nmol/kg. Moreover, the EC50 on α1D (rat aorta) and at α1B (rat spleen) was above 1000 µM throughout. The ED (5 mmHg IUP increase) in the series on Anesthetized Dogs [4] is above 1 µmol/kg.
With `CCS(=O)(=O)Nc1cccc(Cc2c[nH]cn2)c1.O=C(O)/C=C\C(=O)O` [Example 30, N-[3-(1H-imidazol-4-ylmethyl)phenyl]ethanesulfonamide, maleate], the inhibition constant (Ki) came to 0.135 µM in series [1], 0.279 µM in [5] and 0.882 µM in series [6]. For the same compound, the “Mean MAP ED20” value in the series with Anesthetized Dogs [3] turned out to be 80.5 nmol/kg. For the same compound, the EC50 is above 1000 µM at α1D (rat aorta) and 0.692 µM at α1B (rat spleen). The ED (5 mmHg IUP increase) with Anesthetized Dogs [4] was 0.0121 µmol/kg.
